# Reference: US20130273057A1, “METHODS AND COMPOSITIONS FOR THE TREATMENT AND DIAGNOSIS OF VASCULAR INFLAMMATORY DISORDERS OR ENDOTHELIAL CELL DISORDERS” (Beth Israel Deaconess Medical Center, Inc., priority 2007, published 2013)
# Columns and labels:
# MER = experiment: Thrombin-induced receptor tyrosine kinase phosphorylation in HUVECs (4G10 immunoprecipitation/western blot); assay type: cell-based, human; settings: confluent HUVECs pretreated with 10 μM SU5416 for 2 hrs; 5 U/ml thrombin
# Excerpt: (§1) (−): No thrombin; (T): 5 U/ml thrombin. Molecular weights are in kDa.
# Tie-1 endodomain = experiment: as above; assay type: cell-based, human; settings: confluent HUVECs pretreated with 10 μM SU5416 for 2 hrs; 5 U/ml thrombin
# Excerpt: as §1
# Tie-2 = experiment: as above; assay type: cell-based, human; settings: confluent HUVECs pretreated with 10 μM SU5416 for 2 hrs; 5 U/ml thrombin
# Excerpt: as §1
# VEGFR2 = experiment: as above; assay type: cell-based, human; settings: confluent HUVECs pretreated with 10 μM SU5416 for 2 hrs; 5 U/ml thrombin
# Excerpt: as §1
# HUVEC monolayer [1] = experiment: Permeability assay, FITC-BSA across HUVEC monolayer in Transwell; assay type: cell-based, human; settings: 10 μM SU5416 1 hour, 5 U/ml thrombin 10 mins
# Description: FIG. 12 is a graph showing the thrombin induced-endothelial barrier dysfunction requires VEGFR activity. Confluent HUVEC monolayers were established in Transwell inserts. […] After 10 minutes of stimulation, fluorescein-labeled BSA that had diffused to the lower chamber was detected by fluorescence measurement and used as a surrogate marker of endothelial permeability. T: thrombin; SU: SU5416.
# Permeability assay: 50,000 HUVECs were seeded in a Transwell insert (Corning 3496) in 100 μl of full EGM2-MV medium. EGM2-MV medium (600 μl) was added to the lower chamber. An endothelial monolayer was allowed to establish overnight. […] The inserts were then immediately transferred to a new well containing 500 μl PBS (with Mg^2+/Ca^2+; GIBCO 14040-141). After 10 mins of incubation, the Transwells were removed, and fluorescence of the PBS in the lower chamber was measured using a CytoFluor Multiwell Plate Reader (Series 4000) with the following settings: excitation λ 485/20 […], emission λ 530/25. Immunostaining: LabTek slide chambers (177429) were precoated with 50 μg/ml rat tail collagen type-1 (BD Biosciences, 354236) at 37° C. for 1 hour according to the manufacturer's protocol. […] Images were recorded using a fluorescence microscope (Nikon Corporation, Tokyo, Japan) and coupled to a Spot RT camera (Diagnostic Instruments Inc, Sterling Heights, Mich.). […]
# HUVEC monolayer [2] = experiment: Immunostaining of VE-cadherin and actin stress fiber, endothelial gap formation; assay type: cell-based, human; settings: 10 μM SU5416 2 hours
# Description: VE-cadherin, actin stress fiber, and nuclei were stained with anti VE-cadherin antibody (green), phalloidin (red), and DAPI (blue), respectively.
# EGM2-MV medium (600 μl) was added to the lower chamber. An endothelial monolayer was allowed to establish overnight. […] Each slide chamber was seeded with 200,000 HUVECs in one ml of EGM2-MV medium. An endothelial monolayer was allowed to established overnight. […] After 15 mins of stimulation, cells were fixed with 4% paraformaldehyde in PBS for 15 mins and permeabilized with 0.5% Triton X-100 in PBS for 5 mins. […] After 3 washes with 0.5% FBS/PBS, the samples were mounted in a drop of ProLong Gold antifade reagent with DAPI (Probes, P36931). Images were recorded using a fluorescence microscope (Nikon Corporation, Tokyo, Japan) and coupled to a Spot RT camera (Diagnostic Instruments Inc, Sterling Heights, Mich.). Western blotting: To examine the phosphorylation status of VE-Cadherin and myosin light chain
# myosin light chain (MLC) = experiment: Western blot of MLC phosphorylation upon thrombin stimulation; assay type: cell-based, human; settings: 10 μM SU5416 pretreatment; thrombin 5 minutes; serine 19
# Description: (§2) FIGS. 14A-14C show transactivation of VEGFR is critical for tyrosine phosphorylation of VE-cadherin and p120 but not involved in MLC signaling. […] To preserve tyrosine phosphorylation, cells were then treated with 2 mM Na3VO4/2 mM H2O2 for 5 mins prior to lysis (Lampugnani, Corada et al., J. Cell Sci. 110 (Pt 17): 2065-2077, (1997)). A portion of the clarified total lysates was analyzed by western blot using an anti-phospho MLC antibody. The membrane was stripped and reblotted with anti GAPDH antibody. In FIG. 14B VE-cadherin was immunoprecipitated from lysates prepared in FIG. 14A. Tyrosine phosphorylation was detected by 4G10 antibody (FIG. 14B, i). The membrane was stripped and reblotted with an anti VE-cadherin antibody (FIG. 14B, ii). […] 4G10 immunoprecipitates were fractioned by SDS-PAGE, and p120 was detected by western blot. (−): No thrombin; (T): 5 U/ml thrombin. Molecular weights are in kDa.
# (§3) (MLC) upon thrombin stimulation, a procedure derived from a published protocol was used (Ukropec et al., J. Biol. Chem. 275: 5983-5986, (2000)). […] Cells were then washed with PBS containing Mg^2+/Ca^2+ (GIBCO 14040-141) supplemented with 1 mM Na3VO4 and 0.2 mM H2O2 at room temperature for 5 mins. […] After SDS-PAGE, phosphorylation of VE-cadherin was detected by western blotting with the antibody 4G10. […]
# VE-cadherin = VE-cadherin tyrosine phosphorylation (immunoprecipitation/4G10 western blot); assay type: cell-based, human; settings: 10 μM SU5416 pretreatment
# Description: as §2, §3
# p120 = p120 tyrosine phosphorylation (4G10 immunoprecipitation/western blot); assay type: cell-based, human; settings: 10 μM SU5416 2 hrs
# Description: as §2, §3
# [3] = system: PAR-1 induced vascular leak in mice; experiment: PAR-1 induced vascular leak in mouse ears (Evan blue); assay type: in vivo; settings: ear pretreated with 10 μl of 10 μM SU5416 for one hour; PAR-1 activating peptide and Evan blue by tail vein; about 15 minutes
# Description: Then 20 μl of 5 mM PAR-1 activating peptide and 500 μl 0.1% Evan blue was injected into the mouse by tail vein injection. About 15 minutes later the extent of vascular leaks in the ears was documented by photography.
# VEGFR-2 = VEGFR-2 (Homo sapiens, UniProt P35968); settings: cited from earlier work
# Chain of VEGFR-2 (P35968 20-1356, species assumed): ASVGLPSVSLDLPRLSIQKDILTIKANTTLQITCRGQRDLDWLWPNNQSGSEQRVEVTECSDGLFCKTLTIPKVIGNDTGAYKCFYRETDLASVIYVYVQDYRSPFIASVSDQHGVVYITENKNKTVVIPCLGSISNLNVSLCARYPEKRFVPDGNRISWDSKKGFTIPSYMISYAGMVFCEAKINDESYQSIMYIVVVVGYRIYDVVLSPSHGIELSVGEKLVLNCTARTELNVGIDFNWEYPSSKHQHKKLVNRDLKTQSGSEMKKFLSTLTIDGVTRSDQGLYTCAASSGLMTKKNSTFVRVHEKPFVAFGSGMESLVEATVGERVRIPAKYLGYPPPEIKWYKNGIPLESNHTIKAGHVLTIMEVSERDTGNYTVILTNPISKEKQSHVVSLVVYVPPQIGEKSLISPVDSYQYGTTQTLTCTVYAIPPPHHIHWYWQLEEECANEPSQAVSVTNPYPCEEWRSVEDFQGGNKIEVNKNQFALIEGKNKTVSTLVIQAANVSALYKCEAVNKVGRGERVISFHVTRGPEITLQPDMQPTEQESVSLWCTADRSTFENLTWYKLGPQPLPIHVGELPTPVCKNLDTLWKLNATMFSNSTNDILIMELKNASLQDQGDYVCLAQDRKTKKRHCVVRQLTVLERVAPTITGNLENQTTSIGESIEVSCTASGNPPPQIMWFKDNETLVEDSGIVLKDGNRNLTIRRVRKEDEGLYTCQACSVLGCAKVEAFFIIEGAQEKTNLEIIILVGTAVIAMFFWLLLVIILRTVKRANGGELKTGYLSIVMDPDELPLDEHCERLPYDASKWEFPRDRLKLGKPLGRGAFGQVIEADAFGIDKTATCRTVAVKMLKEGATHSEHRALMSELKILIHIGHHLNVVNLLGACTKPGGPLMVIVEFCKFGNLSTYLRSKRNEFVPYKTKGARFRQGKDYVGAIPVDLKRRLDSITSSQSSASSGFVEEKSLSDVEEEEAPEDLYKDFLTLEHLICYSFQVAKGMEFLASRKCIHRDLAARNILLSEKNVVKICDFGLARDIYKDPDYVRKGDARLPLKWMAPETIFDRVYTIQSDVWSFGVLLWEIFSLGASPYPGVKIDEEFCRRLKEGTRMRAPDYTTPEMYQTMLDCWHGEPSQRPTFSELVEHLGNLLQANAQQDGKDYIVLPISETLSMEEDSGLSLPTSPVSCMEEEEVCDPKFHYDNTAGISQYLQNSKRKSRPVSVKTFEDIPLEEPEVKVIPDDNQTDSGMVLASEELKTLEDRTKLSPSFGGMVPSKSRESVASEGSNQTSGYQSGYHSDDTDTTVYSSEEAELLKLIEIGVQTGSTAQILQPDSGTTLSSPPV
# PDGF receptor = settings: relative to VEGFR-2; cited from earlier work
# FGF R = settings: cited from earlier work
# several xenograph models = settings: intra-peritoneal injection twice weekly, 50 mg/kg; cited from earlier work
# [4] = thrombin or PAR-1 AP 30 μM, 15 mins
smiles,measurement,setting,value
Cc1cc(C)c(/C=C2\C(=O)Nc3ccccc32)[nH]1 [SU5416],activation of MER by thrombin stimulation,MER,completely blocked
same,thrombin-induced phosphorylation of Tie-1 endodomain,Tie-1 endodomain,partially blocked
same,thrombin-induced phosphorylation of Tie-2,Tie-2,partially blocked
same,phosphorylation of VEGFR2 induced by thrombin,VEGFR2,significantly attenuated
same,thrombin-induced increase in endothelial permeability,HUVEC monolayer [1],completely blocked
same,stress fiber formation induced by thrombin,HUVEC monolayer [2]; thrombin 15 mins,did not block
same,VE-cadherin disruption induced by thrombin or PAR-1 AP,HUVEC monolayer [2]; [4],completely blocked
same,intercellular gap formation induced by thrombin or PAR-1 AP,HUVEC monolayer [2]; [4],no intercellular gaps formed
same,serine phosphorylation of MLC induced by thrombin,myosin light chain (MLC),did not affect
same,thrombin-induced tyrosine phosphorylation of VE-cadherin,VE-cadherin,significantly blocked
same,thrombin-induced tyrosine phosphorylation of p120,p120,significantly blocked
same,PAR-1 induced vascular leak in mice,[3],inhibited
same,blocking VEGFR-2 function in cells,VEGFR-2,most effective
same,"inhibition of PDGF receptor in cell based assays, times less effective",PDGF receptor,20 times
same,inhibition of FGF R,FGF R,poor inhibitor
same,tumor progression in xenograph models,several xenograph models,effectively blocks
